As usually defined, the EC50 is the concentration at which the effect is half-maximal.

Experimental findings from US8143263B2, “Therapeutic agents” (Astrazeneca AB, priority 2008, dated 2012) are described below.

This test concerns the target T1, recombinant human pancreatic GLK (Homo sapiens, UniProt P35557).
T1 sequence (P35557 1-465): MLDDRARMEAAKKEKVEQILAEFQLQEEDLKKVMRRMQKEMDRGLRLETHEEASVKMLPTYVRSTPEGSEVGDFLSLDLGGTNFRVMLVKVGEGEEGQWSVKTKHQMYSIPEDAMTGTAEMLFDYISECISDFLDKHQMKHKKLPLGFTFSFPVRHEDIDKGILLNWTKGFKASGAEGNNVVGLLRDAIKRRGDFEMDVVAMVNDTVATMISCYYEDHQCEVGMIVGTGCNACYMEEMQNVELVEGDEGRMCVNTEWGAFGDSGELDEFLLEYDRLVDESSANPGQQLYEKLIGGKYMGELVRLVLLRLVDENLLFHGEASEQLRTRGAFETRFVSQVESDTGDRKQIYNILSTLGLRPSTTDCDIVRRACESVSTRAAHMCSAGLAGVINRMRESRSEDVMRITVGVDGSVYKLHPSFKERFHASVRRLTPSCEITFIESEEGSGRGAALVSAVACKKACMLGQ
In words: biochemical.
`Cc1cnc(NC(=O)[C@H](CO[C@H](C)CO)Oc2ncnc3c2cnn3-c2ccccc2Cl)cn1` [Example 247, (2S)-2-[1-(2-chlorophenyl)pyrazolo[3,4-d]pyrimidin-4-yl]oxy-3-[(1R)-2-hydroxy-1-methyl-ethoxy]-N-(5-methylpyrazin-2-yl)propanamide]: the EC50 is 590 nM.

`O=C(Nc1ccc(F)cn1)[C@H](COCCO)Oc1ncnc2c1cnn2-c1ccccc1Cl` [Example 248, (2S)-2-[1-(2-chlorophenyl)pyrazolo[3,4-d]pyrimidin-4-yl]oxy-N-(5-fluoro-2-pyridyl)-3-(2-hydroxyethoxy)propanamide]: the EC50 is 640 nM.

Turning to `Cc1cnc(NC(=O)[C@H](CN2CC(O)C2)Oc2ncnc3c2cnn3-c2ncccc2Cl)s1` [Example 249, (2S)-2-[1-(3-chloro-2-pyridyl)pyrazolo[3,4-d]pyrimidin-4-yl]oxy-3-(3-hydroxyazetidin-1-yl)-N-(5-methylthiazol-2-yl)propanamide], the EC50 came out at 590 nM.

On to `O=C(Nc1ccccn1)[C@H](COCCO)Oc1ncnc2c1cnn2-c1c(Cl)cccc1Cl` [Example 250, (2S)-2-[1-(2,6-dichlorophenyl)pyrazolo[3,4-d]pyrimidin-4-yl]oxy-3-(2-hydroxyethoxy)-N-(2-pyridyl)propanamide], for which the EC50 stood at 230 nM.

On to `C[C@H](CO)OC[C@H](Oc1ncnc2c1cnn2-c1c(Cl)cccc1C#N)C(=O)Nc1ccc(C#N)cn1` [Example 251, (2S)-2-[1-(2-chloro-6-cyano-phenyl)pyrazolo[3,4-d]pyrimidin-4-yl]oxy-N-(5-cyano-2-pyridyl)-3-[(1R)-2-hydroxy-1-methyl-ethoxy]propanamide], for which the EC50 was 350 nM.

In the case of `C[C@H](CO)OC[C@H](Oc1ncnc2c1cnn2-c1ccccc1Cl)C(=O)Nc1ccc(C#N)cn1` [Example 252, (2S)-2-[1-(2-chlorophenyl)pyrazolo[3,4-d]pyrimidin-4-yl]oxy-N-(5-cyano-2-pyridyl)-3-[(1R)-2-hydroxy-1-methyl-ethoxy]propanamide], the EC50 was 450 nM.
